Measured values reported in patent US5861480A, “Antimicrobial proteins from aralia and impatiens” (Zeneca Limited, priority 1994, dated 1999).

Tests used:
Format in all cases: cell-based
Candida albicans KA-1 = test: Anti-yeast activity assay, C albicans
[1] = tested on: Septoria tritici (K1097D); test: Antifungal activity assay (microspectrophotometry), S tritici; conditions: 48 h
Trichoderma viride K1127 = test: Antifungal activity assay (microspectrophotometry), T viride; conditions: 48 h
[2] = tested on: C sphaerospermum (Cladosnorium sphaerospermum KO791); test: Antifungal activity assay (microspectrophotometry), C sphaerospermum; conditions: 48 h
[3] = tested on: Cercospora beticola strain K897; test: Antifungal activity assay (microspectrophotometry), C beticola; conditions: Medium A (1/2 PDB), 48 h
[4] = tested on: B maydis (Bipolaris mavdis HM-10); test: Antifungal activity assay (microspectrophotometry), B maydis; conditions: Medium A (1/2 PDB), 48 h
[5] = tested on: Botrytis cinerea MUCL 30158; test: Antifungal activity assay (microspectrophotometry), B cinerea; conditions: 48 h
[6] = tested on: Verticillium albo-atrum K0937; test: Antifungal activity assay (microspectrophotometry), V albo-atrum; conditions: 48 h
[7] = tested on: Fusarium moniliforme FM-9; test: Antifungal activity assay (microspectrophotometry), F moniliforme; conditions: Medium A (1/2 PDB), 48 h
[8] = tested on: Sphacelotheca reiliana HS; test: Antifungal activity assay (microspectrophotometry), S reiliana; conditions: Medium A (1/2 PDB), 48 h
Stenocarpella maydis = test: Antifungal activity assay (microspectrophotometry), S maydis; conditions: Medium A (1/2 PDB), 48 h
[9] = tested on: P digitatum (Penicillium dipitatum (K0879)); test: Antifungal activity assay (microspectrophotometry), P digitatum; conditions: 48 h
[10] = tested on: Saccharomyces cerevisiae JRY188; test: Anti-yeast activity assay, S cerevisiae
[11] = tested on: C graminicola (Colletotrichum Qraminicola CG-17); test: Antifungal activity assay (microspectrophotometry), C graminicola; conditions: Medium A (1/2 PDB), 48 h
[12] = tested on: Escherichia coli strain HB101; test: Antibacterial activity assay (microspectrophotometry), E coli; conditions: bacterial suspension in soft nutrient agarose, 24 hours at 28° C.
[13] = tested on: A longipes (Alternaria lonaives CBS62083); test: Antifungal activity assay (microspectrophotometry), A longipes; conditions: 48 h
[14] = tested on: F graminearum (Fusarium craminearum FR-12); conditions: Medium A (1/2 PDB), 48 h
[15] = tested on: Verticillium dahliae MUCL 19210; test: Antifungal activity assay (microspectrophotometry), V dahliae; conditions: Medium A (1/2 PDB), 48 h
[16] = tested on: Bacillus megaterium ATCC 13632; test: Antibacterial activity assay (microspectrophotometry), B megaterium; conditions: bacterial suspension in soft nutrient agarose, 24 hours at 28° C.
[17] = tested on: Fusarium culmorum IMI 180420; test: Antifungal activity assay (microspectrophotometry), F culmorum; conditions: 48 h
plant pathogenic fungi = test: Antifungal potency on different plant pathogenic fungi (summary over the panel); conditions: high salt medium (medium B)
[18] = Medium B (1/2 PDB + 1 mM CaCl2 and 50 mM KCl)

Substance	IC50 (growth inhibition) S tritici ([1]; Medium A (1/2 PDB)) [µg/mL]	IC50 (growth inhibition) S tritici [1, 18] [µg/mL]	IC50 (growth inhibition) T viride (Trichoderma viride K1127; Medium A (1/2 PDB)) [µg/mL]	IC50 (growth inhibition) T viride (Trichoderma viride K1127; [18]) [µg/mL]	IC50 (growth inhibition) C sphaerospermum ([2]; Medium A (1/2 PDB)) [µg/mL]	IC50 (growth inhibition) C sphaerospermum [2, 18] [µg/mL]	IC50 (growth inhibition) C beticola [3] [µg/mL]	IC50 (growth inhibition) B cinerea ([5]; Medium A (1/2 PDB)) [µg/mL]	IC50 (growth inhibition) B cinerea [5, 18] [µg/mL]	IC50 (growth inhibition) V albo-atrum ([6]; Medium A (1/2 PDB)) [µg/mL]	IC50 (growth inhibition) V albo-atrum [6, 18] [µg/mL]	IC50 (growth inhibition) P digitatum ([9]; Medium A (1/2 PDB)) [µg/mL]	IC50 (growth inhibition) P digitatum [9, 18] [µg/mL]	IC50 (growth inhibition) A longipes ([13]; Medium A (1/2 PDB)) [µg/mL]	IC50 (growth inhibition) A longipes [13, 18] [µg/mL]	IC50 (growth inhibition) F culmorum ([17]; Medium A (1/2 PDB)) [µg/mL]	IC50 (growth inhibition) F culmorum [17, 18] [µg/mL]	other results
Ib-AMP1: Impatiens balsamina antimicrobial protein 1, purified from I balsamina seeds; amino acid sequence SEQ ID NO 10 (QWGRRCCGWGPGRRYCVRWC)	1	50	6	> 200	1.5	50	1.5	12	> 200	3	> 200	3	200	3	50	1.5	50	IC50 (growth inhibition) C albicans (Candida albicans KA-1): 10 µg/mL; effect on the growth of C. albicans (in words) (Candida albicans KA-1): strongly inhibitied; IC50 (growth inhibition) B maydis [4]: 7 µg/mL; IC50 (growth inhibition) F moniliforme [7]: 20 µg/mL; IC50 (growth inhibition) S reiliana [8]: 4 µg/mL; IC50 (growth inhibition) S maydis (Stenocarpella maydis): 5 µg/mL; IC50 (growth inhibition) S cerevisiae [10]: 20 µg/mL; IC50 (growth inhibition) C graminicola [11]: 2 µg/mL; IC50 (growth inhibition) E coli [12]: > 800 µg/mL; IC50 (growth inhibition) F graminearum [14]: 3 µg/mL; IC50 (growth inhibition) V dahliae [15]: 1 µg/mL; IC50 (growth inhibition) B megaterium [16]: 10 µg/mL
Ib-AMP2: Impatiens balsamina antimicrobial protein 2, purified from I balsamina seeds; amino acid sequence SEQ ID NO 11 (QYGRRCCNWGPGRRYCKRWC)			12	> 200	6	> 200	3	25	> 200	12	> 200	6	> 200	12	> 200	6	> 200	
Ib-AMP3: Impatiens balsamina antimicrobial protein 3, purified from I balsamina seeds; amino acid sequence SEQ ID NO 12 (QYRHRCCAWGPGRKYCKRWC)			12	> 200	3	100		6	> 200	6	> 200	3	100	6	> 200	6	100	
Ib-AMP4: Impatiens balsamina antimicrobial protein 4, purified from I balsamina seeds; amino acid sequence SEQ ID NO 13 (QWGRRCCGWGPGRRYCRRWC)	1	12	6	150	1	6		6	200	6	50	3	25	3	12	1	6	antifungal activity in high salt medium (in words) (plant pathogenic fungi): fairly strong activity
